Reference: patent US8987243B2, “11-(2-pyrrolidin-1-yl-ethoxy)-14,19-dioxa-5,7,26-triaza-tetracyclo[19.3.1.1(2,6).1(8,12)]heptacosa-maleate salt” (CTI Biopharma Corp., priority 2008, dated 2015)
Counter-ions that a name gives are not always drawn. Values belong to the compound of their own block, whether it stands above or below them.

Experiments:
Format in all cases: physicochemical
[1] = Gravimetric Vapour Sorption (GVS), with XRPD post GVS; settings: for solid form / crystalline pattern by XRPD post GVS: compared with starting material
[2] = Stress tests: storage at elevated temperature and humidity, analysed by XRPD
Method: The group three material was stressed under conditions which might cause it to convert to group one material or, indeed, another hydrated or polymorphic form. Thus samples were stored at 40° C./75% RH and also at 60° C./96% RH and analysed at regular intervals by XRPD.
The stability of the maleate salt form A material was tested in harsher conditions, when the samples were kept for a week in the humidity chamber at 60° C. and 96% RH.
The samples of both hydrochloride (comparative) and maleate salts were subjected to X-ray diffraction to determine the characteristic X-ray diffraction pattern. The conditions used were as follows: X-Ray Powder Diffraction patterns were collected on a Siemens D5000 diffractometer using Cu Kα radiation (40 kV, 40 mA), θ-θ goniometer, divergence of V20 and receiving slits, a graphite secondary monochromator and a scintillation counter. The instrument is performance checked using a certified Corundum standard (NIST 1976).

[3] = Thermal gravimetric analysis (TGA); settings: for water lost in the first phase of the TGA: hydrochloride
Method: The samples of both hydrochloride (comparative) and maleate salts were subjected to thermal gravimetric analysis and differential scanning calorimetry under the following conditions. DSC data were collected on a TA Instruments Q2000 equipped with a 50 position auto-sampler. The instrument was calibrated for energy and temperature calibration using certified indium. Typically 0.5-3 mg of each sample, in a pin-holed aluminium pan, was heated at 10° C.·min^−1 from 25° C. to 270° C.
TGA data were collected on a TA Instruments Q500 TGA, equipped with a 16 position auto-sampler. The instrument was temperature calibrated using certified Alumel. Typically 5-30 mg of each sample was loaded onto a pre-tared platinum crucible and aluminium DSC pan, and was heated at 10° C.·min^−1 from ambient temperature to 300° C. A nitrogen purge at 60 ml·min^−1 was maintained over the sample. The instrument control software was Thermal Advantage v4.6.6 and the data were analysed using Universal Analysis v4.3A. Alternatively, TGA data were collected on a Mettler TGA/SDTA 851e equipped with a 34 position auto-sampler. The instrument was temperature calibrated using certified indium. Typically 5-30 mg of each sample was loaded onto a pre-weighed aluminium crucible and was heated at 10° C.·min^−1 from ambient temperature to 300° C. A nitrogen purge at 50 ml·min^−1 was maintained over the sample. The instrument control and data analysis software was STARe v9.01.

[4] = Variable temperature X-ray diffraction; settings: variable temperature XRPD
Method: Samples run under non-ambient conditions were mounted on a silicon wafer with heat-conducting compound. The sample was then heated to the appropriate temperature at ca. 10° C.·min^−1 and subsequently held isothermally for ca 2 minutes before data collection was initiated. In order to probe the stability of the samples of the maleate salts variable temperature X-ray diffraction was carried out. Thus, the salts were scanned under X-ray diffraction conditions at a series of temperatures and the characteristic peaks determined.

[5] = Maturation studies in 27 solvents, solids analysed by XRPD; settings: 4 h heat/cool cycles 50° C./r.t., 24 h
Method: In order to determine the propensity of polymorphism for the maleate salt the material was maturated in 27 different solvents. A small amount of solid was slurried with the corresponding solvent (see Table 4 below) and stored in the incubator and subjected to 4 h-heat/cool cycles at 50° C./r.t. for 24 h. The solvents were then removed under vacuum, and the remaining solids analysed by XRPD.

- mass gained on going from 40% RH to 90% RH (water absorption) ([1]; GVS): 1.6%
- mass lost on going from 90% RH to dryness ([1]; GVS, hydrochloride): 2.4%
- solid form / crystalline pattern by XRPD post GVS ([1]; hydrochloride): unchanged
- solid form by XRPD after storage ([2]; 40° C./75% RH, 0 hrs): Group three.
- solid form by XRPD after storage ([2]; 40° C./75% RH, 24 hrs): Group three.
- solid form by XRPD after storage ([2]; 40° C./75% RH, 48 hrs): Group three.
- solid form by XRPD after storage ([2]; 40° C./75% RH, 72 hrs): Group one.
- solid form by XRPD after storage ([2]; 60° C./96% RH, 0 hrs): Group three.
- solid form by XRPD after storage ([2]; 60° C./96% RH, 24 hrs): Group one.
- weight loss in the TGA ([3]; until degradation at around 240° C.): very little weight loss
SMILES: C1=CCOCc2cc(ccc2OCCN2CCCC2)Nc2nccc(n2)-c2cccc(c2)COC1.Cl [Batch HCl 6, 11-(2-pyrrolidin-1-yl-ethoxy)-14,19-dioxa-5,7,26-triaza-tetracyclo[19.3.1.1(2,6).1(8,12)]heptacosa-1(25),2(26),3,5,8,10,12(27),16,21,23-decaene hydrochloride]

- total weight lost in the TGA ([3]; TGA): 3.4%
- another loss ([3]; TGA, at 165° C.): 1.97%
- water lost in the first phase of the TGA ([3]; TGA): 1.5%
SMILES: C1=CCOCc2cc(ccc2OCCN2CCCC2)Nc2nccc(n2)-c2cccc(c2)COC1.Cl [Batch HCl 3, 11-(2-pyrrolidin-1-yl-ethoxy)-14,19-dioxa-5,7,26-triaza-tetracyclo[19.3.1.1(2,6).1(8,12)]heptacosa-1(25),2(26),3,5,8,10,12(27),16,21,23-decaene hydrochloride]

- mass regained on going to 40% RH ([1]; GVS, after dryness): 2%
- adsorption of water in the initial adsorption cycle ([1]; GVS, at 90% RH): 5.5%
- total gain of mass ([1]; GVS, whole experiment): 2%
- water content after the gain ([1]; GVS, corresponds to a dihydrate): 6.5%
- mass lost on going from 90% RH to dryness ([1]; GVS, hydrochloride): 5%
- two stage weight loss, total ([3]; TGA, up to 100° C.): 4.5%
SMILES: C1=CCOCc2cc(ccc2OCCN2CCCC2)Nc2nccc(n2)-c2cccc(c2)COC1.Cl [Batch HCl 1, 11-(2-pyrrolidin-1-yl-ethoxy)-14,19-dioxa-5,7,26-triaza-tetracyclo[19.3.1.1(2,6).1(8,12)]heptacosa-1(25),2(26),3,5,8,10,12(27),16,21,23-decaene hydrochloride]

- hygroscopicity ([1]; GVS): low hygroscopicity
- weight taken up in water ([1]; GVS, between 0 and 90% RH): less than 0.6%
- solid form / crystalline pattern by XRPD post GVS [1]: No changes
- changes in the crystalline pattern after storage ([2]; a week in the humidity chamber at 60° C. and 96% RH): no changes
- change of X-ray diffraction pattern with temperature [4]: no change
- weight loss in the TGA ([3]; until the salt melts with decomposition at 200° C.): no weight loss
- Solid Form after maturation ([5]; 1,4-dioxane): Form A
- Solid Form after maturation ([5]; 1-butanol): Form A
- Solid Form after maturation ([5]; 1-pentanol): Form A
- Solid Form after maturation ([5]; 1-propanol): Form A
- Solid Form after maturation ([5]; 2-butanol): Form A
- Solid Form after maturation ([5]; 2-methoxy ethanol): Form A
- Solid Form after maturation ([5]; 3-methyl-1-butanol): Form A
- solid forms identified after maturation, all cases ([5]; 27 different solvents): only one solid form
- Solid Form after maturation ([5]; Acetonitrile): Form A
- Solid Form after maturation ([5]; Cyclohexane): Form A
- Solid Form after maturation ([5]; DMSO): Form A
- Solid Form after maturation ([5]; Dicloromethane): Form A
- Solid Form after maturation ([5]; Ethanol): Form A
- Solid Form after maturation ([5]; Ethyl acetate): Form A
- Solid Form after maturation ([5]; Heptane): Form A
- Solid Form after maturation ([5]; IPA): Form A
- Solid Form after maturation ([5]; Isobutyl acetate): Form A
- Solid Form after maturation ([5]; Isopropyl acetate): Form A
- Solid Form after maturation ([5]; Methyl isobutyl ketone): Form A
- Solid Form after maturation ([5]; Methylethyl ketone): Form A
- Solid Form after maturation ([5]; Nitromethane): Form A
- Solid Form after maturation ([5]; Propyl acetate): Form A
- Solid Form after maturation ([5]; TBME): Form A
- Solid Form after maturation ([5]; Tetrahydrofuran): Form A
- Solid Form after maturation ([5]; Toluene): Form A
- Solid Form after maturation ([5]; Water): Form A
- Solid Form after maturation ([5]; acetone): Form A
- Solid Form after maturation ([5]; methanol): Form A
SMILES: C1=C/COCc2cc(ccc2OCCN2CCCC2)Nc2nccc(n2)-c2cccc(c2)COC/1 [maleate salt, 11-(2-pyrrolidin-1-yl-ethoxy)-14,19-dioxa-5,7,26-triaza-tetracyclo[19.3.1.1(2,6).1(8,12)]heptacosa-1(25),2(26),3,5,8,10,12(27),16,21,23-decaene]

- water lost in the first phase of the TGA ([3]; TGA): 5.6%
SMILES: C1=CCOCc2cc(ccc2OCCN2CCCC2)Nc2nccc(n2)-c2cccc(c2)COC1.Cl [Batch HCl 2, 11-(2-pyrrolidin-1-yl-ethoxy)-14,19-dioxa-5,7,26-triaza-tetracyclo[19.3.1.1(2,6).1(8,12)]heptacosa-1(25),2(26),3,5,8,10,12(27),16,21,23-decaene hydrochloride]

- mass gained on going from 40% RH to 90% RH (water absorption) ([1]; GVS): 1.6%
- mass lost on going from 90% RH to dryness ([1]; GVS, hydrochloride): 2.8%
- solid form / crystalline pattern by XRPD post GVS ([1]; hydrochloride): unchanged
- mass lost ([3]; TGA, between ambient and 108° C.): 6.5%
SMILES: C1=CCOCc2cc(ccc2OCCN2CCCC2)Nc2nccc(n2)-c2cccc(c2)COC1.Cl [Batch HCl 4, 11-(2-pyrrolidin-1-yl-ethoxy)-14,19-dioxa-5,7,26-triaza-tetracyclo[19.3.1.1(2,6).1(8,12)]heptacosa-1(25),2(26),3,5,8,10,12(27),16,21,23-decaene hydrochloride]
